Results as given in PMC10708475, “HPLC-DAD-MS Characterization, Antioxidant Activity, α-amylase Inhibition, Molecular Docking, and ADMET of Flavonoids from Fenugreek Seeds” (Molecules, 2023).

Legend:
[1] = Ferric-reducing antioxidant power (FRAP) assay; conditions: concentration indicating 0.50 absorbance, 700 nm; maximum tested 200 µg/mL
Description: The ferric-reducing antioxidant power (FRAP) assay was carried out according to [119]. The reaction mixture contained 10 μL of the extracts, 40 µL phosphate buffer (pH 6.6), and 50 μL potassium ferricyanide K3[Fe (CN)6] (1%), was incubated at 50 °C for 20 min, then 50 µL of trichloroacetic acid (TCA) (10%) and 40 µL of distilled water and 10 µL of ferric chloride FeCl3 (0.1%) were added. Then, the absorbance was measured at 700 nm using a microplate reader of type PerkinElmer (Enspire) against a blank. Tannic acid, α-tocopherol, and ascorbic acid were used as references.
The results of the tests carried out are expressed as an average ± SD of analyses in three tests. […] The one-way analysis of variance ANOVA was used to detect significant differences (p < 0.05).

[2] = DPPH radical scavenging assay; conditions: 30 min, 517 nm
Description: The ability of radical scavenging was determined according to [118], using the radical DPPH• (2,2-diphenyl-1-picrylhydrazyl). 160 µL of DPPH solution (0.15 mM) was added to 40 µL of the diluted extracts in methanol and incubated in the dark. After 30 min of incubation, the absorbances were measured at 517 nm by a microplate reader of type PerkinElmer (Enspire) against a blank. BHA, BHT, and α-tocopherol were used as reference antioxidants. DPPH inhibition percentage was calculated using the following equation:(3) Inhibition(%)=A0−As/A0×100 where A0 is the absorbance of the control (without the sample) and As is the absorbance of the tested samples. The antioxidant activity of the extracts and standards was expressed as IC50 (the concentration of the tested samples that inhibits 50% of DPPH radicals).
(§1) The results of the tests carried out are expressed as an average ± SD of analyses in three tests. The values of IC50 (50% inhibition concentration) and A0.5 (the concentration indicating 0.50 absorbance) are calculated using the linear regression method from the two curves: [% inhibition = f (concentration)] for IC50 and [Absorbance = f (concentration)] for A0.5. All the antioxidant and enzymatic tests were carried out at more than four concentration values. The one-way analysis of variance ANOVA was used to detect significant differences (p < 0.05).

[3] = ABTS+ scavenging activity; conditions: 10 min, 734 nm
Description: The ABTS•+ assay (2, 2′-azino-bis (3-ethylbenzthiazoline-6-sulfonic acid)) was carried out according to the method with some modifications. The ABTS+ reagent was prepared as follows: 19.2 mg of ABTS (7 mM) in 5 mL distilled water was mixed with 3.3 mg of Potassium persulfate K2S2O8 (2.45 mM) in 5 mL distilled water, and the mixture was incubated for 16 h in the dark before use. We have added 160 µL of ABTS+ reagent to 40 μL of extract solutions. After 10 min of incubation, the absorbance was read at 734 nm using a microplate reader of type PerkinElmer (Enspire). BHA and BHT were used as references. The total antioxidant activity of the extracts was calculated as follows:(4) ABTS^+scavenging effect (%)=AControl−ASample/AControl×100
as §1

| Molecule | FRAP A0.5 [1] [µg/mL] | DPPH Inhibition IC50 [2] [µg/mL] | ABTS Inhibition IC50 [3] [µg/mL] |
| --- | --- | --- | --- |
| O=C1O[C@H]([C@@H](O)CO)C(O)=C1O [Ascorbic acid] | 6.77 ± 1.15 | – | – |
| COc1ccc(O)c(C(C)(C)C)c1 [BHA, Butylated hydroxyanisole] | – | 6.14 ± 0.41 | 1.81 ± 0.10 |
| Cc1cc(C(C)(C)C)c(O)c(C(C)(C)C)c1 [BHT, hydroxytoluene] | – | 12.99 ± 0.41 | 1.29 ± 0.30 |
| Tannic acid | 5.39 ± 0.91 | – | – |
